Data as given in patent US12589104B2, “Thiosaccharides for use in treating coronavirus infection” (priority 2020, dated 2026).

Molecular target: SARS-CoV-2 RBD^N501Y binding to ACE2 (Severe acute respiratory syndrome coronavirus 2, UniProt P0DTC2, N501Y)

SMILES: NCCS [Cysteamine]
- inhibition of binding of RBD^N501Y to ACE2: potently inhibited
